From PubChem BioAssay (NCI)
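At the GI50, growth is halved. TGI marks complete inhibition of growth.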

What was measured:
Experiment in all cases: NCI tumour cell line growth inhibition, 384-well format
CCRF-CEM leukemia = test system: CCRF-CEM leukemia
SK-MEL-5 melanoma = test system: SK-MEL-5 melanoma
HS 578T breast = test system: HS 578T breast
BT-549 breast = test system: BT-549 breast
HOP-62 NSCLC = test system: HOP-62 NSCLC
RXF 393 renal = test system: RXF 393 renal
SF-268 CNS = test system: SF-268 CNS
TK-10 renal = test system: TK-10 renal
M14 melanoma = test system: M14 melanoma
DU-145 prostate = test system: DU-145 prostate
MDA-MB-468 breast = test system: MDA-MB-468 breast
MCF7 breast = test system: MCF7 breast
UACC-257 melanoma = test system: UACC-257 melanoma
SNB-19 CNS = test system: SNB-19 CNS
UACC-62 melanoma = test system: UACC-62 melanoma
U251 glioblastoma = test system: U251 glioblastoma
NCI-H322M lung = test system: NCI-H322M lung
MOLT-4 leukemia = test system: MOLT-4 leukemia
OVCAR-5 ovarian = test system: OVCAR-5 ovarian
SN12C renal = test system: SN12C renal
LOX IMVI melanoma = test system: LOX IMVI melanoma
HCC-2998 colon = test system: HCC-2998 colon
K-562 leukemia = test system: K-562 leukemia
EKVX NSCLC = test system: EKVX NSCLC
HT29 colon = test system: HT29 colon
NCI-H23 lung = test system: NCI-H23 lung
HL-60(TB) leukemia = test system: HL-60(TB) leukemia
PC-3 prostate = test system: PC-3 prostate
SW-620 colon = test system: SW-620 colon
MDA-MB-231 breast = test system: MDA-MB-231 breast
UO-31 renal = test system: UO-31 renal
OVCAR-8 ovarian = test system: OVCAR-8 ovarian
786-0 renal = test system: 786-0 renal
SF-295 CNS = test system: SF-295 CNS
NCI/ADR-RES ovarian = test system: NCI/ADR-RES ovarian
IGROV1 ovarian = test system: IGROV1 ovarian
HCT-15 colon = test system: HCT-15 colon
NCI-H522 lung = test system: NCI-H522 lung
ACHN renal = test system: ACHN renal
COLO 205 colon = test system: COLO 205 colon
MDA-MB-435 melanoma = test system: MDA-MB-435 melanoma
OVCAR-3 ovarian = test system: OVCAR-3 ovarian
SR leukemia = test system: SR leukemia
T-47D breast = test system: T-47D breast
CAKI-1 renal = test system: CAKI-1 renal
KM12 colon = test system: KM12 colon
SK-OV-3 ovarian = test system: SK-OV-3 ovarian
A498 renal = test system: A498 renal
A549 NSCLC = test system: A549 NSCLC
HOP-92 NSCLC = test system: HOP-92 NSCLC
OVCAR-4 ovarian = test system: OVCAR-4 ovarian
SK-MEL-28 melanoma = test system: SK-MEL-28 melanoma
MALME-3M melanoma = test system: MALME-3M melanoma
SNB-75 CNS = test system: SNB-75 CNS
SF-539 CNS = test system: SF-539 CNS
NCI-H226 lung = test system: NCI-H226 lung
RPMI-8226 leukemia = test system: RPMI-8226 leukemia
NCI-H460 NSCLC = test system: NCI-H460 NSCLC

Structure (SMILES): O=C(NCC(F)(F)F)Nc1cccc(-c2cnc3cc(-c4ccc(F)cc4)ccn23)c1
- GI50 (CCRF-CEM leukemia): 734 nM
- TGI (CCRF-CEM leukemia): 2030 nM
- GI50 (SK-MEL-5 melanoma): 444 nM
- TGI (SK-MEL-5 melanoma): 9920 nM
- GI50 (HS 578T breast): 655 nM
- TGI (HS 578T breast): 2250 nM
- GI50 (BT-549 breast): 324 nM
- TGI (BT-549 breast): 2130 nM
- GI50 (HOP-62 NSCLC): 688 nM
- TGI (HOP-62 NSCLC): 11000 nM
- GI50 (RXF 393 renal): 1490 nM
- TGI (RXF 393 renal): 7290 nM
- GI50 (SF-268 CNS): 1810 nM
- TGI (SF-268 CNS): 9050 nM
- GI50 (TK-10 renal): 2210 nM
- TGI (TK-10 renal): 13100 nM
- GI50 (M14 melanoma): 569 nM
- TGI (M14 melanoma): 5670 nM
- GI50 (DU-145 prostate): 3130 nM
- TGI (DU-145 prostate): 18400 nM
- GI50 (MDA-MB-468 breast): 250 nM
- TGI (MDA-MB-468 breast): 568 nM
- GI50 (MCF7 breast): 804 nM
- TGI (MCF7 breast): 12500 nM
- GI50 (UACC-257 melanoma): 1850 nM
- TGI (UACC-257 melanoma): 14600 nM
- GI50 (SNB-19 CNS): 1460 nM
- TGI (SNB-19 CNS): 6950 nM
- GI50 (UACC-62 melanoma): 559 nM
- TGI (UACC-62 melanoma): 12400 nM
- GI50 (U251 glioblastoma): 1390 nM
- TGI (U251 glioblastoma): 12200 nM
- GI50 (NCI-H322M lung): 3680 nM
- TGI (NCI-H322M lung): 21200 nM
- GI50 (MOLT-4 leukemia): 219 nM
- TGI (MOLT-4 leukemia): 391 nM
- GI50 (OVCAR-5 ovarian): 4040 nM
- TGI (OVCAR-5 ovarian): 25500 nM
- GI50 (SN12C renal): 756 nM
- TGI (SN12C renal): 4530 nM
- GI50 (LOX IMVI melanoma): 741 nM
- TGI (LOX IMVI melanoma): 8310 nM
- GI50 (HCC-2998 colon): 705 nM
- TGI (HCC-2998 colon): 9270 nM
- GI50 (K-562 leukemia): 362 nM
- TGI (K-562 leukemia): 1200 nM
- GI50 (EKVX NSCLC): 1900 nM
- TGI (EKVX NSCLC): 16800 nM
- GI50 (HT29 colon): 367 nM
- TGI (HT29 colon): 1570 nM
- GI50 (NCI-H23 lung): 1020 nM
- TGI (NCI-H23 lung): 3560 nM
- GI50 (HL-60(TB) leukemia): 321 nM
- TGI (HL-60(TB) leukemia): 853 nM
- GI50 (PC-3 prostate): 2300 nM
- TGI (PC-3 prostate): 10800 nM
- GI50 (SW-620 colon): 433 nM
- TGI (SW-620 colon): 10500 nM
- GI50 (MDA-MB-231 breast): 650 nM
- TGI (MDA-MB-231 breast): 19300 nM
- GI50 (UO-31 renal): 4680 nM
- TGI (UO-31 renal): 19500 nM
- GI50 (OVCAR-8 ovarian): 2480 nM
- TGI (OVCAR-8 ovarian): 12100 nM
- GI50 ([…]-0 renal): 1080 nM
- TGI (786-0 renal): 5810 nM
- GI50 (SF-295 CNS): 1130 nM
- TGI (SF-295 CNS): 4390 nM
- GI50 (NCI/ADR-RES ovarian): 1510 nM
- TGI (NCI/ADR-RES ovarian): 3730 nM
- GI50 (IGROV1 ovarian): 1400 nM
- TGI (IGROV1 ovarian): 10500 nM
- GI50 (HCT-15 colon): 358 nM
- TGI (HCT-15 colon): 1610 nM
- GI50 (NCI-H522 lung): 292 nM
- TGI (NCI-H522 lung): 899 nM
- GI50 (ACHN renal): 2790 nM
- TGI (ACHN renal): 12900 nM
- GI50 (COLO 205 colon): 451 nM
- TGI (COLO 205 colon): 3530 nM
- GI50 (MDA-MB-435 melanoma): 210 nM
- TGI (MDA-MB-435 melanoma): 457 nM
- GI50 (OVCAR-3 ovarian): 484 nM
- TGI (OVCAR-3 ovarian): 2250 nM
- GI50 (SR leukemia): 148 nM
- TGI (SR leukemia): 309 nM
- GI50 (T-47D breast): 862 nM
- TGI (T-47D breast): 7450 nM
- GI50 (CAKI-1 renal): 1110 nM
- TGI (CAKI-1 renal): 12500 nM
- GI50 (KM12 colon): 400 nM
- TGI (KM12 colon): 11900 nM
- GI50 (SK-OV-3 ovarian): 631 nM
- TGI (SK-OV-3 ovarian): 7870 nM
- GI50 (A498 renal): 769 nM
- TGI (A498 renal): 10300 nM
- GI50 (A549 NSCLC): 1080 nM
- TGI (A549 NSCLC): 12900 nM
- GI50 (HOP-92 NSCLC): 1710 nM
- TGI (HOP-92 NSCLC): 8880 nM
- GI50 (OVCAR-4 ovarian): 571 nM
- TGI (OVCAR-4 ovarian): 5640 nM
- GI50 (SK-MEL-28 melanoma): 2320 nM
- TGI (SK-MEL-28 melanoma): 17900 nM
- GI50 (MALME-3M melanoma): 498 nM
- TGI (MALME-3M melanoma): 14500 nM
- GI50 (SNB-75 CNS): 376 nM
- TGI (SNB-75 CNS): 2090 nM
- GI50 (SF-539 CNS): 832 nM
- TGI (SF-539 CNS): 2540 nM
- GI50 (NCI-H226 lung): 1030 nM
- TGI (NCI-H226 lung): 8570 nM
- GI50 (RPMI-8226 leukemia): 575 nM
- TGI (RPMI-8226 leukemia): 1830 nM
- GI50 (NCI-H460 NSCLC): 408 nM
- TGI (NCI-H460 NSCLC): 10400 nM
